Measurements reported in patent US20080107751A1, “Antimicrobial Wax Composition for Wax Therapy” (priority 2004, published 2008).

Key:
human pathogens = test: Growth of pathogens in molten wax composition containing triclosan; format: cell-based
Procedure: (§1) In its simplest form, the wax composition according to the present invention comprises a wax component and an antimicrobial component. The preferred wax is conventional, physio-therapy-grade paraffin wax that is solid at room temperature and has a melting point around 120° F. The preferred antimicrobial agent or component is triclosan, which is a phenolic, broad-spectrum antimicrobial that is generally regarded as safe for use on human skin, and even for ingestion by humans in small amounts. It is available from several sources, including Ciba Specialty Chemicals Corporation, 4090 Premier Drive, High Point, N.C. 27265. […] These bacteria were selected for testing as common human pathogens that are commonly found on the hands. Additionally, these pathogens also model the “survivability” of other pathogens that could be found in the melted wax.
(§2) This is the preferred concentration of the triclosan antimicrobial in the molten wax composition according to the present invention. As disclosed in connection with the below examples, this is about 0.18-0.2% by weight of the total composition.
The foregoing examples vary primarily in their fragrance and coloration. They are by way of example only and not intended to be by way of limitation. Variation of other components is regarded as within the invention. […]

[1] = test system: Salmonella (both enteritidis and typhimurium strains); test: Growth and survival of Salmonella in molten wax composition; format: cell-based
Procedure: as §1, §2

E. Coli 0157 = test: Growth and survival of E. Coli 0157 in molten wax composition; format: cell-based
Procedure: as §1, §2

Staphylococcus aurea = test: Growth and survival of Staphylococcus in molten wax composition; format: cell-based, Staphylococcus aureus
Procedure: as §1, §2

Streptococcus = test: Growth and survival of Streptococcus in molten wax composition; format: cell-based; settings: triclosan 500 μg/ml up to 1000 μg/ml in molten wax
Text: as §2

[2] = molten wax, versus absence of triclosan
[3] = triclosan 500 μg/ml up to 1000 μg/ml in molten wax

Oc1cc(Cl)ccc1Oc1ccc(Cl)cc1Cl [triclosan]
concentration that inhibits the growth of both pathogens (human pathogens; molten wax composition, about 0.18-0.2% by weight): 2000 µg/mL
concentration found to inhibit growth of pathogens in wax (human pathogens; wax maintained at 52.5° C. or 126.5° F., concentrations as low as): ≥ 500 µg/mL
time of survivability in wax composition ([1]; molten wax): decrease
growth of bacteria in wax composition [1, 2]: inhibit growth
growth and survival ([1]; triclosan 500 μg/ml up to 1000 μg/ml in molten wax, Salmonella apparently eliminated by heat alone): not
time of survivability in wax composition (E. Coli 0157; molten wax): decrease
growth of bacteria in wax composition (E. Coli 0157; [2]): inhibit growth
growth and survival (E. Coli 0157; [3]): permitted growth and survival
time of survivability in wax composition (Staphylococcus aurea; molten wax): decrease
growth of bacteria in wax composition (Staphylococcus aurea; [2]): inhibit growth
growth and survival (Staphylococcus aurea; [3]): permitted growth and survival
growth and survival (Streptococcus): permitted growth and survival
